This assay has as its target T1, α2δ subunit derived from porcine brain tissue (Sus scrofa, UniProt A0A287BIN3).
T1 construct: the α2δ subunit derived from porcine brain tissue; from tissue; host or cells: porcine brain
In words: radioligand binding assay using [3H]gabapentin and the α2δ subunit. As to conditions: [3H]gabapentin radioligand. From the text: The biological activity of the compounds of the invention may be measured in a radioligand binding assay using [^3H]gabapentin and the α2δ subunit derived from porcine brain tissue (Gee N. S., Brown J. P., Dissanayake V. U. K., Offord J., Thurlow R., Woodruff G. N., […] J. Biol. Chem., 1996;271:5879-[…]). Results may be expressed in terms of μM or nM α2δ binding affinity.

The structures appear in SMILES notation.

T1 sequence (A0A287BIN3 entry or part of it): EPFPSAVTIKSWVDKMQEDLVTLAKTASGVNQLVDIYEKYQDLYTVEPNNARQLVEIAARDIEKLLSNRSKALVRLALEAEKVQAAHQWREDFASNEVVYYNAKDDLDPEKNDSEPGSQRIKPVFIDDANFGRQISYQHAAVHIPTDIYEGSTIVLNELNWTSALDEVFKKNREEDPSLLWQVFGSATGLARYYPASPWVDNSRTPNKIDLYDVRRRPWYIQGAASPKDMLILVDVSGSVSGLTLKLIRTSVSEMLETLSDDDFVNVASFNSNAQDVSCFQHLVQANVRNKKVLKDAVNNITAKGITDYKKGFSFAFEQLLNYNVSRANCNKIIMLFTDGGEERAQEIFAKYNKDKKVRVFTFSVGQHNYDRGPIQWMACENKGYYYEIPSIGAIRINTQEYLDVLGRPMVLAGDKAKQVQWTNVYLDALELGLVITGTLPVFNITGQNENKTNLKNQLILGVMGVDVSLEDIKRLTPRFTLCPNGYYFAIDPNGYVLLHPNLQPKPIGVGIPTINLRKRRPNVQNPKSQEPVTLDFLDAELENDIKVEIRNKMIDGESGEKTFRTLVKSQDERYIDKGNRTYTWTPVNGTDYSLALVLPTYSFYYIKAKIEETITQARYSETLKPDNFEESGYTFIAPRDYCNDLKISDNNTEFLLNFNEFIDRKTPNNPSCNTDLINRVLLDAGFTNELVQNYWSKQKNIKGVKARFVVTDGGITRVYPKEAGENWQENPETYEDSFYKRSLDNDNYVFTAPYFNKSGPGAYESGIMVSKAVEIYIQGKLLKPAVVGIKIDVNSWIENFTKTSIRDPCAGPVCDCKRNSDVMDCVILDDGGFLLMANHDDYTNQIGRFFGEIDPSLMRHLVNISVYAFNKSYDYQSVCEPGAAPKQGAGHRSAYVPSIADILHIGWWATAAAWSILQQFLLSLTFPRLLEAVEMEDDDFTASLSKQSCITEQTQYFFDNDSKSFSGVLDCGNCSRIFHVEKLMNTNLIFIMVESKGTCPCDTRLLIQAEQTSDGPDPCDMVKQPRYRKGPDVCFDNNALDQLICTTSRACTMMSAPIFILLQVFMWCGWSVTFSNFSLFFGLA

For `Cl.NC[C@]1(CC(=O)O)C[C@H]2CCCC[C@H]21` (racemic) [Example 4, [(1RS,6RS,7SR)-7-(Aminomethyl)bicyclo[4.2.]oct-7-yl]acetic acid hydrochloride], the α2δ binding affinity is 600 nM.

The compound `Cl.NC[C@]1(CC(=O)O)C[C@H]2CCC[C@H]21` [Example 1, [(1R,5R,6S)-6-(Aminomethyl)bicycl[3.2.0]hept-6-yl]acetic acid hydrochloride] returned a α2δ binding affinity of 46.8 nM.

The values are drawn from patent US20040092591A1, “Therapeutic use of fused bicyclic or tricyclic amino acids” (priority 2002, published 2004).
